According to US8663629B2, “Kallikrein-binding “kunitz domain” proteins and analogues thereof” (Dyax Corp., priority 1994, dated 2014):
Bridge positions count the residues as written; N and C are the ends. Ends that are not written are not given here. * marks the point of attachment. CH2F = FC*

Assays:
[1] = molecular target: T1, plasma Kallikrein (Homo sapiens, UniProt P03952); conditions: ANGL87; cited from earlier work
Target sequence in this assay (P03952 20-390): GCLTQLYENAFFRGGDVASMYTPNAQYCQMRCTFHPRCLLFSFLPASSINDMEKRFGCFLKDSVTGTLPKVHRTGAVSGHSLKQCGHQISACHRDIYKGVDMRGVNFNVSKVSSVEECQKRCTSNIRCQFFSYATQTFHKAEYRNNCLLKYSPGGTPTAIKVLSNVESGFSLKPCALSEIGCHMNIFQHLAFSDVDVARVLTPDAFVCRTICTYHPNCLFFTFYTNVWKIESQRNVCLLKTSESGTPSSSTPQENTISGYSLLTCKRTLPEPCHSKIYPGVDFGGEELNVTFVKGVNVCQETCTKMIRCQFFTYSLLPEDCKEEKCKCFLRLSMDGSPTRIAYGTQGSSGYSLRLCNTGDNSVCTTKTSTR
Target sequence in this assay (P03952 391-638): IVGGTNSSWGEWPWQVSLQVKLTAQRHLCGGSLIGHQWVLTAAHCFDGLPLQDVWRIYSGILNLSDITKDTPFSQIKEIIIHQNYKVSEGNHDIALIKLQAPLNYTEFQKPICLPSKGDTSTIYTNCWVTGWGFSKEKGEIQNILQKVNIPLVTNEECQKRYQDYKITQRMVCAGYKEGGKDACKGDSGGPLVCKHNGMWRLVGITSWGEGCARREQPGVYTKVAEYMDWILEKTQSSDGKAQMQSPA

[2] = tested on: Trypsin; conditions: ANGL87; cited from earlier work
[3] = molecular target: T2, Plasmin (Homo sapiens, UniProt P00747); test: biochemical
Text: (§1) A second method appropriate for measuring the affinity of inhibitors for enzymes is to measure the ability of the inhibitor to slow the action of the enzyme. This method requires, depending on the speed at which the enzyme cleaves substrate and the availability of chromogenic or fluorogenic substrates, tens of micrograms to milligrams of relatively pure inhibitor.

[4] = molecular target: pKA (plasma kallikrein) (Homo sapiens, UniProt P03952); test: biochemical
Text: as §1

[5] = tested on: Trypsin; test: Display-phage binding to trypsin target (specificity); conditions: compared to the parental phage display LACI-K1
[6] = molecular target: T1, plasma Kallikrein; test: Display-phage binding to human plasma kallikrein-agarose beads; set-up: The light chain (248 residues) carries the catalytic site; purchased Calbiochem #420302
Method: This method is highly sensitive because the genetic packages can be amplified. We obtain at least semiquantitative values for the binding constants by use of a pH step gradient.
The overall scheme for selecting a LACI(K1) variant to bind to a given protease involves incubation of the phage-display library with the kallikrein-beads of interest in a buffered solution (PBS containing 1 mg/ml BSA) followed by washing away the unbound and poorly retained display-phage variant with PBS containing 0.1% Tween 20. Kallikrein beads were made by coupling human plasma Kallikrein (Calbiochem, San Diego, Calif., #420302) to agarose beads using Reactigel (6×) (Pierce, Rockford, Ill., #202606). […]
The neutralized eluted display-phage can be either used: • i) to inoculate an F^+ strain of E. coli to generate a new display-phage stock, to be used for subsequent rounds of selection (so-called conventional screening), or • ii) be used directly for another immediate round of selection with the protease beads (so-called quick screening). Typically, three rounds of either method, or a combination of the two, are performed to give rise to the final selected display-phage from which a representative number are sequenced and analyzed for binding properties either as pools of display-phage or as individual clones.
Target sequence in this assay (P03952 391-638 limits assumed): as the sequence (P03952 391-638) above
Target sequence in this assay (P03952 20-390 limits assumed): as the sequence (P03952 20-390) above

[7] = molecular target: Thrombin (Homo sapiens, UniProt P00734); test: Display-phage binding to thrombin target (specificity); conditions: compared to the parental phage display LACI-K1
[8] = molecular target: T2, Plasmin; test: Display-phage binding to plasmin target (specificity); conditions: compared to the parental phage display LACI-K1

Sequence of pKA (plasma kallikrein) (P03952 391-638 limits assumed): as the sequence (P03952 391-638) above
Sequence of pKA (plasma kallikrein) (P03952 20-390 limits assumed): as the sequence (P03952 20-390) above
T2 sequence (P00747 581-810 limits assumed, species assumed): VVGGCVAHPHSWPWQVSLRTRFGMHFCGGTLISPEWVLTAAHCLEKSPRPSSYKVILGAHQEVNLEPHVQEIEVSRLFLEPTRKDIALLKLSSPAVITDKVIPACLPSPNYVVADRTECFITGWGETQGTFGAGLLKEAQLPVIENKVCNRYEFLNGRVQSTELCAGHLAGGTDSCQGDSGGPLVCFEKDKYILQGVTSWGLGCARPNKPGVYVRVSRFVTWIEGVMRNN
T2 sequence (P00747 97-580 partner limits assumed, species assumed): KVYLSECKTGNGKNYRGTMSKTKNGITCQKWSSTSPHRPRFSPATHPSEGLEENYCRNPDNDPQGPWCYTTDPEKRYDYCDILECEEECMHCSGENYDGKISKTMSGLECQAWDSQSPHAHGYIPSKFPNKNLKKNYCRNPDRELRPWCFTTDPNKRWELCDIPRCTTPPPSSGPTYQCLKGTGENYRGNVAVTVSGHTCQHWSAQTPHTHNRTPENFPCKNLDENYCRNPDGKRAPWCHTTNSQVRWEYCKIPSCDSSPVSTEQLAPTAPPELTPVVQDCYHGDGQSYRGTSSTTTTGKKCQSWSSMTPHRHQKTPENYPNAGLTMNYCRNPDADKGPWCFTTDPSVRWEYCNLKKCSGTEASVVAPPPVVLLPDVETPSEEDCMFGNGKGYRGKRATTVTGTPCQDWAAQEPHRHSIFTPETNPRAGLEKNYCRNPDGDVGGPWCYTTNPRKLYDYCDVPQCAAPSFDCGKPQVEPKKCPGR

Ala-Phe-Lys-CH2F
inhibition of plasma kallikrein [1]: active-centre-directed inhibitor
inhibition of trypsin [2]: active-centre-directed inhibitor

MHSFCAFKADDGHCKANHQRFFFNIFTRQCEEFSYGGCGGNQNRFESLEECKKMCTRD (disulfide 5-55, 14-38, 30-51) [KKII/3#6]
Ki [3]: 10 µM
Ki [4]: < 0.0005 µM
Ki for kallikrein ([4]; stated in words): nanomolar range
Ki for kallikrein relative to wild-type LACI and BPTI ([4]; versus both wild-type LACI and BPTI): over 100 times

bovine pancreatic trypsin inhibitor [BPTI]
relative binding of phage display clones, target Trypsin [5]: (0.3)
relative binding of phage display clones, target Trypsin, two washes ([5]; two washes): (0.8)
relative binding of phage display clones, target Kallikrein ([6]; compared to the parental phage display LACI-K1): (1.7)
Relative Binding ([6]; fraction bound relative to the parental display-phage LACI(K1)): 6.0
relative binding of phage display clones, target Thrombin [7]: (1.1)
relative binding of phage display clones, target Plasmin [8]: (88)^4
